Assays:
[1] = Quantum yield measurement (fluorescein standard); format: physicochemical; conditions: PBS (pH 7.4) containing 50% glycerol; fluorescein as standard
[2] = Measurement of viscosity sensitivity of FMR-DAAs in PBS-glycerol; format: physicochemical; conditions: free probe 0.1 mM in 1×PBS containing 0-80% glycerol, pH 7.4
Method: For free FMR-DAAs measurement, FMR-DAAs (100 mM stock solution, DMSO) was diluted in PBS-glycerol solution (1×PBS containing 0%, 20%, 40%, 50%, 60% and 80% glycerol, pH 7.4) to a final concentration of 0.1 mM. The solutions were transferred into 96-well micro-plate and the fluorescence was measure at corresponding Em wavelength mentioned above using SpectraMax M2 plate reader (corresponding Ex wavelength was used). The viscosity sensitivity was calculated using the following equation, where r is viscosity of the solvents, I is the emission intensity of the FMR-DAAs, C is a constant depending on the temperature, and x is the viscosity sensitivity (Zhou el, EJOC, 2011, 4773). The Ig, 50%/Iw value represents the ratio of fluorescent intensity of the 50% glycerol sample to that of the 0% glycerol sample.

[3] = Measurement of thermal stability of FMR-DAAs; format: physicochemical; conditions: PBS (pH 7.4), 24-hours incubation at 60° C.
Method: FMR-DAAs (100 mM stock solution, DMSO) was diluted with 1×PBS (pH7.4) to a final concentration of 0.05 mM. The FMR-DAAs solution was then incubated at 60° C. and kept from light exposure. […]

[4] = UV-Vis spectra and calibration curve of FMR-DAAs (excitation/emission maxima, absorptivity); format: physicochemical; design: Absorptivity (ε): unit not given here; conditions: for Max. λEm / Max. λEx: PBS (pH 7.4) containing 50% glycerol, scan range 350 to 800 nm; for Absorptivity (ε): PBS (pH 7.4), Beer's Law
Method: The excitation and emission wavelengths of FMR-DAAs were measured by SpectraMax M2 plate reader using disposable cuvette (polymethyl methacrylate). UV-Vis spectra of FMR-DAAs were measured by scanning within a range from 350 to 800 nm with an increment of 1 nm. The wavelength at maximum absorbance (Ex) and emission (Em) of FMR-DAAs were recorded.
For plotting calibration curves, FMR-DAAs (100 mM stock solution, DMSO) were diluted into 1×PBS (pH 7.4) and the corresponding A. absorbance of FMR-DAAs was measured as a function of concentration (0.1, 0.05, 0.025 and 0.0125 mM). The absorptivity was calculated as described by Beer's Law. The spectra of molecular rotor designs are illustrated in FIG. 7 (panels (i)-(vi)).

S. aureus PBP4 [5] = molecular target: T1, S. aureus PBP4 (Staphylococcus aureus, UniProt P72355); test: Nitrocefin assay of PBP4 β-lactamase activity in the presence of antibiotics; format: biochemical; conditions: in the presence of the antibiotic
T1 sequence (P72355 25-431): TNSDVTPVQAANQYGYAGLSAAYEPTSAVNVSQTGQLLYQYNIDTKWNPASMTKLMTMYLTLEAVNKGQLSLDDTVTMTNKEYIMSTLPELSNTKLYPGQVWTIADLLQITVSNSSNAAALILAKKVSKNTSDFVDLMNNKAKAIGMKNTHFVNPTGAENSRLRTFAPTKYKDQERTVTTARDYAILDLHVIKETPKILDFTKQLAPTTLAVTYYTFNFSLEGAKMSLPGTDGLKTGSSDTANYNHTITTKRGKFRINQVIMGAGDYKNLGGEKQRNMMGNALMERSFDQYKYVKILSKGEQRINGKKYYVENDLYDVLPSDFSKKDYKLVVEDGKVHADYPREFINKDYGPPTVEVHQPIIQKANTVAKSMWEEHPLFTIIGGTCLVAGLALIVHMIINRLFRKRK
From the text: FIG. 12F depicts β-lactamase activity of S. aureus PBP4 in the presence of antibiotics. Nitrocefin degradation by PBP4 results in an increase of absorbance at 500 nm, which is used to measure β-lactamase activity. Low activity stands for a strong inhibition effect of the antibiotics toward PBP4, and vice versa. Values are normalized to the “no antibiotic” sample.
(§1) We further evaluated the utility of this assay for in vitro high-throughput screening for antibiotics. We tested various antibiotics (0.1 equiv. to the substrate) and measured the initial rate of fluorescence increase (FIG. 12E). […] To further confirm the inhibitory effect of these β-lactams toward S. aureus PBP4, we performed a Nitrocefin assay, which tests PBP's β-lactamase activity, in the presence of the antibiotics. […] We also note that this assay can be conducted in an end-point manner, providing an efficient way to test a large number of samples since only a single measurement is required per sample. End-point assays potentially enable high-throughput applications for drug screening and transpeptidation reaction studies.

S. aureus PBP4 [6] = molecular target: T1, S. aureus PBP4; test: In vitro real-time D,D-transpeptidation assay using Rf470 and diacetyl-L-lysine-D-alanine-D-alanine substrate; format: biochemical; conditions: for Effect on initial rate of fluorescence increase (PBP4 enzyme reaction): antibiotics 0.1 equiv. to the substrate; for Effect of added antibiotic on D,D-transpeptidation activity (fluorescence signal increase): antibiotic added to Rf470/substrate/PBP4 reaction
From the text: FIG. 12A depicts an exemplary scheme for the assay procedure for in vitro D,D-transpeptidation assays using Rf470 and isolated S. aureus PBP4.
FIG. 12E depicts screening of antibiotic effect on S. aureus PBP4 activity. Kanamycin and Chloramphenicol: ribosome activity inhibitors; Piperacillin, Ampicillin, Penicillin G, Carbenicillin and Cefoxitin are β-lactam antibiotics. A 1:10 ratio of antibiotics to the substrate was used.
We took advantage of the fact that FMR-DAAs are fluorogenic probes that fluoresce upon PG incorporation to develop a continuous, spectrophotometric assay to monitor the formation of transpeptidation product without the need of quenching and purification. The components of the assay included FMR-DAA probes as the fluorescence reporter, synthetic diacetyl-L-lysine-D-alanine-D-alanine as the substrate (acyl donor) and Staphylococcus aureus PBP4 enzyme. S. aureus PBP4 is known to have D,D-transpeptidation activity responsible for the highly cross-linked PG layer in staphylococci, as well as β-lactamase activity to degrade penicillin-like antibiotics.
Rf470, the synthetic substrate and S. aureus PBP4 were incubated in a 96-well plate and the emission fluorescence was measured overtime using a plate reader (5-minute interval, 1 hour in total, FIG. 12A). […] The formation of cross-linked product was confirmed by reverse-phase HPLC and high-resolution mass spectrometry (FIG. 12C, D).
as §1

[7] = molecular target: S. aureus Sortase A (SrtA) (Staphylococcus aureus, UniProt Q2FV99); test: In vitro FMR-DAA assay with Sortase A and synthetic pentapeptide motif (LPETG); format: biochemical
From the text: (§2) In addition to PBPs, we tested the in vitro assay in other classes of transpeptidases: L,D-transpeptidase (Ldts) and Sortases. It is known that LdtA, encoded by V. cholerae vc1268, is responsible for 3′-3′ cross-linkage formation. […] On the other hand, S. aureus Sortase A (SrtA) is responsible for anchoring surface proteins to PG through a sequence-specific transpeptidation reaction. It recognizes a conserved protein LPXTG motif, and cross-links it with PG pentaglycine in S. aureus. […] Control experiments in the absence of the substrate led to no signal change.

[8] = test system: LdtA, encoded by V. cholerae vc1268; test: In vitro FMR-DAA assay with L,D-transpeptidase and synthetic tetrapeptide (diacyl-L-Ala-D-Glu-L-Lys-D-Ala); format: biochemical; conditions: Rf470 + LdtA + synthetic tetrapeptide
From the text: as §2

bacterial PG = test: Wash-free labeling of bacterial PG with FMR-probe-D-Lys conjugates, fluorescence microscopy; format: cell-based
From the text: FIG. 3E depicts exemplary labeling of bacterial PG with HADA probe (panel (i)) and FMR-probe-D-Lys conjugates having the FMR probe moiety of formula (I), wherein R^1 consists of a —CN moiety (denoted as “Rot1DL” (panel (ii))) without washing prior to fluorescence. Compared to conventional FDAAs (e.g., HADA), FMR-DAAs eliminate the need to wash excess probe.
The presence of the carboxylic acid provides a site for covalent coupling of the FMR-probe to an available amino group on a D-amino acid backbone, such as D-amino-Ala or D-Lys. As FMR-probes having R^1 consist of a cyano moiety provide slight affinity for bacterial membranes, result in low levels of nonspecific labeling and some instability of the α,β-unsaturated malononitrile moiety under typical experimental conditions, such FMR-probes are less preferred for use. In such cases, FMR-probes having R^1 consisting of a carboxylic acid can prevent non-specific membrane binding and increase stability of the probe.

Chain of S. aureus Sortase A (SrtA) (Q2FV99 whole entry): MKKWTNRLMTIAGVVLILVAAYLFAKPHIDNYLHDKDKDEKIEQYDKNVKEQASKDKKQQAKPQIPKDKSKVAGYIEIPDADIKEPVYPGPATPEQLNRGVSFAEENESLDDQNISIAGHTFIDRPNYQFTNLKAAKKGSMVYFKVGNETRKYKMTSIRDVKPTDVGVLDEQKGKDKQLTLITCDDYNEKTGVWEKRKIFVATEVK

Row | SMILES | Viscosity sensitivity (χ) [2] | Thermo-stability (signal retention of absorbance vs initial value) [3] [%] | Max. λEm [4] | Max. λEx [4] | Absorptivity (ε) [4] | Effect on initial rate of fluorescence increase (PBP4 enzyme reaction) (S. aureus PBP4 [6]) | further results
1 | N#CC(=Cc1ccc(-c2ccc3c(c2)CCCN3CCC(=O)O)s1)C(=O)NCCCCC(N)C(=O)O (stereo in doubt) [Rf490, (E)-N^6-(3-(5-(1-(2-carboxyethyl)-1,2,3,4-tetrahydroquinolin-6-yl)thiophen-2-yl)-2-cyanoacryloyl)-L-lysine] | 0.67 ± 0.003 | 96.9 ± 9.8 | 660 | 490 | 25409 | – | Quantum Yield (ϕ) [1]: 0.035; Red-shift in Max. λEX compared to Rf470 [4]: 20 nm
2 | CC1(C)S[C@@H]2[C@H](NC(=O)[C@H](N)c3ccccc3)C(=O)N2[C@H]1C(=O)O [Ampicillin] | – | – | – | – | – | partial inhibition | Inhibition of PBP4 β-lactamase activity (in words) (S. aureus PBP4 [5]): did not inhibit PBP4s β-lactamase activity effectively
3 | CC1(C)S[C@@H]2[C@H](NC(=O)C(C(=O)O)c3ccccc3)C(=O)N2[C@H]1C(=O)O (some centres unmarked) [Carbenicillin] | – | – | – | – | – | inhibited the enzyme reaction almost completely | –
4 | CO[C@@]1(NC(=O)Cc2cccs2)C(=O)N2C(C(=O)O)=C(COC(N)=O)CS[C@@H]21 [Cefoxitin] | – | – | – | – | – | inhibited the enzyme reaction almost completely | Effect of added antibiotic on D,D-transpeptidation activity (fluorescence signal increase) (S. aureus PBP4 [6]): total inhibition
5 | O=C(N[C@H](CO)[C@H](O)c1ccc([N+](=O)[O-])cc1)C(Cl)Cl [Chloramphenicol] | – | – | – | – | – | – | Effect of added antibiotic on D,D-transpeptidation activity (fluorescence signal increase) (S. aureus PBP4 [6]): comparable to the non-treated sample
6 | NC(CNC(=O)c1cc2ccc(O)cc2oc1=O)C(=O)O (centres unmarked) [HADA, reference compound] | 0.025 ± 0.003 | 80.0 ± 1.1 | 450 | 400 | 109538 | – | –
7 | CC1(C)S[C@@H]2[C@H](NC(=O)Cc3ccccc3)C(=O)N2[C@H]1C(=O)O [Penicillin G] | – | – | – | – | – | partial inhibition | –
8 | CCN1CCN(C(=O)N[C@@H](C(=O)N[C@@H]2C(=O)N3[C@@H]2SC(C)(C)[C@@H]3C(=O)O)c2ccccc2)C(=O)C1=O [Piperacillin] | – | – | – | – | – | did not have a significant effect | Inhibition of PBP4 β-lactamase activity (in words) (S. aureus PBP4 [5]): did not inhibit PBP4s β-lactamase activity effectively
9 | N#C/C(=C\c1ccc2c(c1)CCCN2CCC(=O)NCCCC[C@@H](N)C(=O)O)C(=O)O [Rf420, (E)-N6-(3-(6-(2-carboxy-2-cyanovinyl)-3,4-dihydroquinolin-1(2H)-yl)propanoyl)-D-lysine] | 0.683 ± 0.013 | 99.8 ± 1.2 | 490 | 420 | 19761 | – | Quantum Yield (ϕ) [1]: 0.012
10 | N#C/C(=C\c1ccc(-c2ccc3c(c2)CCCN3CCC(=O)NCCCC[C@@H](N)C(=O)O)s1)C(=O)O [Rf470, (E)-N6-(3-(6-(5-(2-carboxy-2-cyanovinyl)thiophen-2-yl)-3,4-dihydroquinolin-1(2H)-yl)propanoyl)-D-lysine] | 0.642 ± 0.022 | 99.4 ± 1.4 | 640 | 470 | 33106 | – | Rf470 signal over time with Sortase A [7]: increase of Rf470 signal over time; Quantum Yield (ϕ) [1]: 0.042; Fluorescence signal over time with LdtA [8]: time-lapse increase of fluorescence signal; Probe fluorescence intensity over time (D,D-transpeptidation signal) (S. aureus PBP4 [6]; probe + synthetic substrate + S. aureus PBP4, 96-well plate, 5-minute interval, 1 hour): increase in fluorescence intensity overtime
11 | N#CC(C#N)=Cc1ccc2c(c1)CCCN2CCC(=O)NCCCC[C@@H](N)C(=O)O [Rotor No. 1, N6-(3-(6-(2,2-dicyanovinyl)-3,4-dihydroquinolin-1(2H)-yl)propanoyl)-D-lysine] | – | – | – | – | – | – | Non-specific affinity to other cellular structures / membranes (bacterial PG; FIG. 3G, no washing): low non-specific affinity to other cellular structures; Incorporation into PG sacculi (bacterial PG; labeled bacterial PG, FIG. 3F): covalently incorporated into PG sacculi

Source: patent US11168077B2, “Molecular rotor-based D-amino acids as tools for imaging peptidoglycan biosynthesis” (Indiana University Research and Technology Corporation, priority 2018, dated 2021)
